In patent EP4417602A1, “SUBSTITUTED PYRAZOLE CARBOXAMIDES, SALTS THEREOF AND THEIR USE AS HERBICIDALLY ACTIVE SUBSTANCES” (Bayer AG, priority 2023, dated 2024):

Tests used:
ECHCG [1] = test: A. Herbicidal pre-emergence action on harmful plants (Tables A); format: in vivo, Echinochloa crus-galli; settings: visual grading after ca. 3 weeks vs untreated controls, 100% = plants have died off, 0% = as control plants
Procedure, shortened: (§1)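 Greenhouse pre-emergence test: compound applied to the soil surface at 1280 g/ha or below, and herbicidal effect rated visually at ca. 3 weeks on a 0–100% scale against untreated plants.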

SETVI [2] = test: as above; format: in vivo, Setaria viridis; settings: visual grading after ca. 3 weeks vs untreated controls, 100% = plants have died off, 0% = as control plants
Procedure, shortened: as §1

POAAN [3] = test: as above; format: in vivo, Poa annua
Procedure, shortened: as §1

AMARE [4] = test: as above; format: in vivo, Amaranthus retroflexus
Procedure, shortened: as §1

DIGSA [5] = test: as above; format: in vivo, Digitaria sanguinalis
Procedure, shortened: as §1

MATIN [6] = test: B. Herbicidal post-emergence action on harmful plants (Tables B); format: in vivo, Matricaria inodora; settings: application rate 1280 g/ha; Table B4a
Procedure, shortened: (§2)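 Activity was scored visually as % damage (100% = dead, 0% = like untreated) about 3 weeks after treatment. Plants at the one-leaf stage, 2-3 weeks old, were sprayed with WP/EC formulations plus 0.5% additive (600 L/ha water, up to 1280 g/ha). Plants were grown in sandy loam in a greenhouse.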

AMARE [7] = test: as above; format: in vivo, Amaranthus retroflexus; settings: application rate 1280 g/ha; Table B8
Protocol: (§3) Seeds of mono- and dicotyledonous weed plants were placed in plastic pots in sandy loam soil (doubly sown with in each case one species of mono- or dicotyledonous weed plants per pot), covered with soil and cultivated in a greenhouse under controlled growth conditions. 2 to 3 weeks after sowing, the test plants were treated at the one-leaf stage. The compounds of the invention, formulated in the form of wettable powders (WP) or as emulsion concentrates (EC), were applied onto the green parts of the plants as aqueous suspension or emulsion with addition of 0.5% additive at a water application rate of 600 liters per hectare (converted). After the test plants had been kept in the greenhouse under optimum growth conditions for about 3 weeks, the activity of the preparations was rated visually in comparison to untreated controls. For example, 100% activity = the plants have died, 0% activity = like control plants. Tables B1 to B12, below, show the effects of selected compounds of the general formula (I) according to table 1 on various harmful plants and an application rate corresponding to 1280 g/ha or below obtained by the experimental procedure mentioned above. Table B1a: post-emergence activity at 1280g/ha against ABUTH in %

KCHSC = test: as above; format: in vivo, Kochia scoparia
Protocol: as §3

DIGSA [8] = test: as above; format: in vivo, Digitaria sanguinalis; settings: application rate 1280 g/ha; Table B12a
Procedure, shortened: as §2

STEME [9] = test: A. Herbicidal pre-emergence action on harmful plants (Tables A); format: in vivo, Stellaria media; settings: visual grading after ca. 3 weeks vs untreated controls, 100% = plants have died off, 0% = as control plants
Procedure, shortened: as §1

ALOMY = test: as above; format: in vivo, Alopecurus myosuroides
Procedure, shortened: as §1

VERPE [10] = test: as above; format: in vivo, Veronica persica; settings: application rate 1280 g/ha; Table A11
Excerpt: Seeds of mono- and dicotyledonous weed plants were sown in plastic pots (double sowings with one species of mono- and one species of dicotyledonous weed plants per pot), in sandy loam, and covered with soil. The compounds according to the invention, formulated in the form of wettable powders (WP) or as emulsifiable concentrates (EC), were applied to the surface of the covering soil as aqueous suspension or emulsion, with the addition of 0.5% of an additive, at an application rate of 6001 of water per hectare (converted). Following treatment, the pots were placed in a greenhouse and kept under optimum growth conditions for the test plants. The visual grading of the damage to the test plants was carried out after ca. 3 weeks in comparison to untreated controls (herbicidal effect in percent (%): 100% effect = plants have died off, 0% effect = as control plants). Tables A1 to A12, below, show the effects of selected compounds of the general formula (I) according to table 1 on various harmful plants and an application rate corresponding to 1280 g/ha or below obtained by the experimental procedure mentioned above. Table A1: pre-emergence activity at 1280g/ha against ABUTH in %

POAAN [11] = test: B. Herbicidal post-emergence action on harmful plants (Tables B); format: in vivo, Poa annua
Procedure, shortened: as §2

LOLRI [12] = test: A. Herbicidal pre-emergence action on harmful plants (Tables A); format: in vivo, Lolium rigidum; settings: visual grading after ca. 3 weeks vs untreated controls, 100% = plants have died off, 0% = as control plants
Procedure, shortened: as §1

MATIN [13] = test: as above; format: in vivo, Matricaria inodora; settings: visual grading after ca. 3 weeks vs untreated controls, 100% = plants have died off, 0% = as control plants
Procedure, shortened: as §1

ABUTH = test: B. Herbicidal post-emergence action on harmful plants (Tables B); format: in vivo, Abutilon theophrasti; settings: application rate 1280 g/ha; Table B1a
Procedure, shortened: as §2

ECHCG [14] = test: as above; format: in vivo, Echinochloa crus-galli
Procedure, shortened: as §2

LOLRI [15] = test: as above; format: in vivo, Lolium rigidum; settings: application rate 1280 g/ha; Table B3
Protocol: as §3

SETVI [16] = test: as above; format: in vivo, Setaria viridis; settings: application rate 1280 g/ha; Table B5
Procedure, shortened: as §2

STEME [17] = test: as above; format: in vivo, Stellaria media; settings: application rate 1280 g/ha; Table B6
Procedure, shortened: as §2

VERPE [18] = test: as above; format: in vivo, Veronica persica
Procedure, shortened: as §2

[19] = application rate 1280 g/ha, visual grading after ca. 3 weeks vs untreated controls, 100% = plants have died off, 0% = as control plants
[20] = application rate 1280 g/ha, Table A12a
[21] = application rate 1280 g/ha, Table B10a
[22] = application rate 1280 g/ha, Table A9a
[23] = application rate 1280 g/ha, Table B7a
[24] = application rate 80 g/ha, Table A7c
[25] = application rate 320 g/ha, Table A7b
[26] = application rate 320 g/ha, Table A12b

For `CC(C)COCc1nn(C)cc1C(=O)N1CCCC1Cc1cc(F)ccc1F` (racemic) [Example I-009], the “pre-emergence activity against ECHCG” value (ECHCG [1]; application rate 1280 g/ha) was 100%, the “pre-emergence activity against SETVI” value (SETVI [2]; application rate 1280 g/ha) was 100% and the “pre-emergence activity against POAAN” value (POAAN [3]; [19]) was 100%. For the same compound, the “pre-emergence activity against AMARE” value (AMARE [4]; [19]) was 100%, the “pre-emergence activity against DIGSA” value (DIGSA [5]; [20]) was 90% and the “post-emergence activity against MATIN” value (MATIN [6]) was 90%. The “post-emergence activity against AMARE” value (AMARE [7]) was 90%, the “post-emergence activity against KCHSC” value (KCHSC; application rate 320 g/ha, Table B10b) was 100% and the “post-emergence activity against KCHSC” value (KCHSC; [21]) was 100%. For the same compound, the “post-emergence activity against DIGSA” value (DIGSA [8]) was 100%.

With `Cn1ncc(C(=O)N2CCCC2Cc2ccccc2F)c1COCC(F)(F)F` (racemic) [Example I-163] the “pre-emergence activity against ECHCG” value (ECHCG [1]; application rate 1280 g/ha) was 90%, the “pre-emergence activity against STEME” value (STEME [9]; application rate 1280 g/ha) was 90% and the “pre-emergence activity against POAAN” value (POAAN [3]; [19]) was 100%. The “pre-emergence activity against ALOMY” value (ALOMY; [22]) was 100%, the “pre-emergence activity against VERPE” value (VERPE [10]) was 100% and the “pre-emergence activity against DIGSA” value (DIGSA [5]; [20]) was 90%. For the same compound, the “post-emergence activity against POAAN” value (POAAN [11]; [23]) was 100% and the “post-emergence activity against KCHSC” value (KCHSC; [21]) was 90%.

With `COCc1c(C(=O)N2CCCC2Cc2ccccc2F)cnn1C` (racemic) [Example I-171] the “pre-emergence activity against ECHCG” value (ECHCG [1]; application rate 320 g/ha) was 90%, the “pre-emergence activity against ECHCG” value (ECHCG [1]; application rate 1280 g/ha) was 100% and the “pre-emergence activity against LOLRI” value (LOLRI [12]; application rate 320 g/ha) was 90%. The “pre-emergence activity against LOLRI” value (LOLRI [12]; application rate 1280 g/ha) was 100%, the “pre-emergence activity against MATIN” value (MATIN [13]; application rate 1280 g/ha) was 100% and the “pre-emergence activity against SETVI” value (SETVI [2]; application rate 320 g/ha) was 90%. For the same compound, the “pre-emergence activity against SETVI” value (SETVI [2]; application rate 1280 g/ha) was 100%, the “pre-emergence activity against STEME” value (STEME [9]; application rate 1280 g/ha) was 90% and the “pre-emergence activity against POAAN” value (POAAN [3]; [24]) was 90%. The “pre-emergence activity against POAAN” value (POAAN [3]; [25]) was 100%, the “pre-emergence activity against POAAN” value (POAAN [3]; [19]) was 100% and the “pre-emergence activity against DIGSA” value (DIGSA [5]; [26]) was 90%. For the same compound, the “pre-emergence activity against DIGSA” value (DIGSA [5]; [20]) was 100% and the “post-emergence activity against KCHSC” value (KCHSC; [21]) was 90%.

For `COCc1nn(C)cc1C(=O)N1CCCC1Cc1ccc(F)cc1F` (single isomer, unassigned) [Example I-079], the “pre-emergence activity against ECHCG” value (ECHCG [1]; application rate 80 g/ha) was 90%, the “pre-emergence activity against ECHCG” value (ECHCG [1]; application rate 320 g/ha) was 90% and the “pre-emergence activity against ECHCG” value (ECHCG [1]; application rate 1280 g/ha) was 90%. For the same compound, the “pre-emergence activity against LOLRI” value (LOLRI [12]; application rate 80 g/ha) was 90%, the “pre-emergence activity against LOLRI” value (LOLRI [12]; application rate 320 g/ha) was 100% and the “pre-emergence activity against LOLRI” value (LOLRI [12]; application rate 1280 g/ha) was 100%. For the same compound, the “pre-emergence activity against MATIN” value (MATIN [13]; application rate 80 g/ha) was 90%, the “pre-emergence activity against MATIN” value (MATIN [13]; application rate 320 g/ha) was 90% and the “pre-emergence activity against MATIN” value (MATIN [13]; application rate 1280 g/ha) was 90%. The “pre-emergence activity against SETVI” value (SETVI [2]; application rate 80 g/ha) was 90%, the “pre-emergence activity against SETVI” value (SETVI [2]; application rate 320 g/ha) was 90% and the “pre-emergence activity against SETVI” value (SETVI [2]; application rate 1280 g/ha) was 90%. For the same compound, the “pre-emergence activity against STEME” value (STEME [9]; application rate 80 g/ha) was 90%, the “pre-emergence activity against STEME” value (STEME [9]; application rate 320 g/ha) was 90% and the “pre-emergence activity against STEME” value (STEME [9]; application rate 1280 g/ha) was 90%. The “pre-emergence activity against POAAN” value (POAAN [3]; [24]) was 100%, the “pre-emergence activity against POAAN” value (POAAN [3]; [25]) was 100% and the “pre-emergence activity against POAAN” value (POAAN [3]; [19]) was 100%. The “pre-emergence activity against AMARE” value (AMARE [4]; application rate 320 g/ha, Table A8b) was 90%, the “pre-emergence activity against AMARE” value (AMARE [4]; [19]) was 90% and the “pre-emergence activity against ALOMY” value (ALOMY; application rate 320 g/ha, Table A9b) was 90%. The “pre-emergence activity against ALOMY” value (ALOMY; [22]) was 90%, the “pre-emergence activity against VERPE” value (VERPE [10]) was 90% and the “pre-emergence activity against DIGSA” value (DIGSA [5]; application rate 80 g/ha, Table A12c) was 90%. The “pre-emergence activity against DIGSA” value (DIGSA [5]; [26]) was 90%, the “pre-emergence activity against DIGSA” value (DIGSA [5]; [20]) was 90% and the “post-emergence activity against ABUTH” value (ABUTH) was 90%. For the same compound, the “post-emergence activity against ECHCG” value (ECHCG [14]; application rate 320 g/ha, Table B2b) was 90%, the “post-emergence activity against ECHCG” value (ECHCG [14]; application rate 1280 g/ha, Table B2a) was 90% and the “post-emergence activity against LOLRI” value (LOLRI [15]) was 90%. The “post-emergence activity against MATIN” value (MATIN [6]) was 90%, the “post-emergence activity against SETVI” value (SETVI [16]) was 90% and the “post-emergence activity against STEME” value (STEME [17]) was 90%. The “post-emergence activity against POAAN” value (POAAN [11]; application rate 80 g/ha, Table B7c) was 90%, the “post-emergence activity against POAAN” value (POAAN [11]; application rate 320 g/ha, Table B7b) was 90% and the “post-emergence activity against POAAN” value (POAAN [11]; [23]) was 90%. The “post-emergence activity against AMARE” value (AMARE [7]) was 90%, the “post-emergence activity against VERPE” value (VERPE [18]; application rate 320 g/ha, Table B11b) was 90% and the “post-emergence activity against VERPE” value (VERPE [18]; application rate 1280 g/ha, Table B11a) was 90%. The “post-emergence activity against DIGSA” value (DIGSA [8]) was 90%.
